{"source": "patent US8367716B2", "about": "(priority 2003, dated 2013)", "key": {"[1]": {"tested_on": "S. aureus DK825", "assay": "Effect on growth rate and cell count of S. aureus", "format": "cell-based, Staphylococcus aureus", "protocol": "Effect on growth rate of S. aureus. S. aureus DK825 was subcultured from glycerol stocks onto a blood agar plate and incubated at 37° C. for 18 h. A single colony was then inoculated into 5 ml TSB broth (supplemented with 0.25% glucose) and incubated at 37° C. for 24 h with shaking at 250 rpm. From a 10^−3 dilution of the overnight culture a 100 μl aliquot was inoculated into tubes containing 5 ml TSB broth resulting in an initial cell count of […] (confirmed by plating). For “treated” samples, an appropriate aliquot of c-di-GMP was added to give 200 μM c-di-GMP (final concentration). As a negative “untreated” control, tubes containing TSB and a similar volume of 0.9% NaCl were included in the studies. At time zero, 50 μl from each sample was plated on blood agar plates to determine the initial cfu/ml. […]"}, "[2]": {"tested_on": "S. aureus", "assay": "Tube agglutination assay and light microscopy (cell-to-cell aggregation)", "format": "cell-based, Staphylococcus aureus", "protocol": "Tube agglutination assay and light microscopy. Colonies from a 18 h blood agar plate were inoculated into 1 ml PBS to make a 0.5 McFarland standard containing ˜5×10^8 cfu/ml (confirmed by plate count). A 5 μl aliquot from the 0.5 McFarland standard was then inoculated into 5 ml polystyrene tubes containing 1 ml TSB representing ˜10^5 cfu/ml (confirmed by plate count). These tubes were inoculated either with 50 μl c-di-GMP to give a 200 μM c-di-GMP final concentration representing a “treated” sample or inoculated with 50 μl 0.9% NaCl as a control and representing an “untreated” control. Cultures were incubated at 37° C. for 24 h statically. Following incubation, these cultures were examined macroscopically and microscopically (Zeiss Axioskop) for the presence or absence of visible cell-to-cell clumping."}, "[3]": {"tested_on": "S. aureus strain DK825 adherence to HeLa cells", "assay": "Epithelial cell assay (bacterial adherence to HeLa cells)", "format": "cell-based, Staphylococcus aureus", "protocol": "Epithelial cell assay. HeLa cells (ATCC CCL2) were grown to confluence in complete medium (10% FBS from Sigma, DMEM/F12 with glutamine from Invitrogen and 50 μg/ml gentamicin) and were trypsinized with 0.1% trypsin-EDTA. Approximately 1×10^5 HeLa cells were seeded in each well of a chamber slide and then the HeLa cells were incubated at 37° C. in 5% CO2 for at least 18 h until 85% confluent. Prior to infection, the HeLa cells were washed twice with warm PBS and then 500 μl warm FMEM/F12 was added to each well. For the bacterial adherence assay, an overnight culture of S. aureus strain DK825 was grown overnight in 5 ml LB broth at 37° C. with shaking at 250 rpm. Following incubation, 1 ml of the overnight culture was pelleted, washed twice with PBS and resuspended in 1 ml of PBS. The HeLa cells in the wells were washed twice with 500 μl of HBSS and aliquots of DMEM with the desired final concentration of c-di-GMP (0-, 2-, 20- and 200 μM) were prepared. DMEM (500 μl) containing the respective concentrations of c-di-GMP was inoculated into the wells containing HeLa cells followed by the addition of 10 μl (˜10^7 cells) S. aureus (MOI HeLa:bacteria˜1:100). The epithelial cell assay was incubated in CO2 for 45 min. Following incubation the cells were washed twice with 500 μl PBS and fixed with 2% formalin for 20 min. The cells were again washed twice with PBS and stained with Giemsa stain for 10 seconds, washed three times with PBS, then the cells covered with 40 μl of 90% glycerol in water and a cover slip was placed. The slides were observed under a light microscope (Zeiss Axioskop) at 630×mag. The level of bacterial adherence to 100 individual HeLa cells was calculated for each duplicate treatment and the average determined."}, "[4]": {"tested_on": "S. aureus", "assay": "Biofilm formation on polystyrene microtitre plates (crystal violet, O.D.570)", "format": "cell-based, Staphylococcus aureus", "protocol": "Effect of c-di-GMP on S. aureus biofilm formation. S. aureus strains were subcultured from glycerol stocks onto blood agar plates and incubated at 37° C. for 18 h. A single colony was inoculated into 5 ml TSB broth with a sterilized loop and incubated at 37° C. for 18 h with shaking at 250 rpm and until the O.D.660 reached 3.0 as measured spectrophotometrically using a spectrophotometer (SpectraMAX 250, Molecular Devices). Following incubation, the culture was diluted 1:250 with fresh TSB and a 200 μl of the diluted culture was transferred into wells of a flat-bottom polystyrene microtitre plate (Evergreen Scientific). […] In these biofilm experiments, similar volumes of 0.9% NaCl was added to a set of different wells representing the “untreated” control samples. The microtitre plates were then incubated statically at 37° C. for 24 h or 48 h. Following incubation, the supernatant was carefully discarded and the wells washed twice with 260 μl PBS. The plate was then kept for drying on a paper towel for 30 min after which 260 μl 0.1% crystal violet was added to each well and the plates incubated at room temperature for 30 min. The crystal violet was discarded and plate washed gently with water, the wells allowed to dry for 30 min then 260 μl DMSO was added to each well and gently agitated for 1 h and the O.D.570 measured by using a spectrophotometer (SpectraMAX 250, Molecular Devices). The results of these biofilm assays were based on data obtained from at least three independent colonies tested in duplicate."}, "[5]": {"tested_on": "S. aureus strain DK825"}}, "data": [{"smiles": "Nc1nc2c(ncn2C2OC3COP(=O)(O)OC4C(COP(=O)(O)OC3C2O)OC(n2cnc3c(=O)[nH]c(N)nc32)C4O)c(=O)[nH]1", "note": "(stereo not drawn) [c-di-GMP, 3′,5′-cyclic diguanylic acid]", "values": [{"measurement": "final cell count", "setting": "[1]; 200 μM, 24 h static culture, no difference to untreated", "value": "6×10^8 CFU/ml"}, {"measurement": "effect on growth rate", "setting": "[1]; 200 μM, hourly examination up to 8 h", "value": "no obvious effect"}, {"measurement": "inhibition of cell viability", "setting": "[1]; as recalled in Example 5 from Example 3", "value": "approximately 1 log"}, {"measurement": "cell-to-cell interactions and clumping (Gram stain, light microscopy)", "setting": "[2]; DK825, 200 μM", "value": "dramatically less cell-to-cell interactions and clumping"}, {"measurement": "visible cell aggregation (macroscopic)", "setting": "[2]; DK825, 200 μM, 24 h static", "value": "no obvious visible cell aggregation or pellet"}, {"measurement": "visible cell aggregation (macroscopic)", "setting": "[2]; bap mutant M556", "value": "inhibits cell aggregation"}, {"measurement": "cell-to-cell interactions and clumping (Gram stain, light microscopy)", "setting": "[2]; bovine mastitis strains V329, V299, V315", "value": "less intercellular interactions and clumping"}, {"measurement": "effect on adherence to HeLa cells", "setting": "[3]; 2 μM", "value": "did not show any obvious effect"}, {"measurement": "effect on adherence to HeLa cells", "setting": "[3]; 20 μM", "value": "did not show any obvious effect"}, {"measurement": "reduction in adherence", "setting": "[3]; 200 μM", "value": "~66", "unit": "%"}, {"measurement": "average adherence", "setting": "[3]; 200 μM, untreated 12 bacteria/cell", "value": 4, "unit": "bacteria/cell"}, {"measurement": "reduction of biofilm formation", "setting": "[4]; DK825, 20 μM, 24 h", "value": "~50", "unit": "%"}, {"measurement": "reduction of biofilm formation", "setting": "[4]; DK825, 200 μM, 24 h", "value": "~65", "unit": "%"}, {"measurement": "reduction of biofilm formation", "setting": "[4]; DK825, 400 μM, 24 h", "value": "~85", "unit": "%"}, {"measurement": "reduction of biofilm formation", "setting": "[4]; bovine strains V329, M556, V299, V315", "value": "50-70%"}, {"measurement": "reduction of cell-to-surface interactions and biofilm formation", "setting": "[4]; human and bovine isolates vs untreated controls", "value": "> 50", "unit": "%"}, {"measurement": "expression of enterotoxin 1, Down-regulated", "setting": "[5]", "value": 0.35, "unit": "fold"}, {"measurement": "expression of enterotoxin A, Down-regulated", "setting": "[5]", "value": 0.54, "unit": "fold"}, {"measurement": "expression of toxic shock syndrome toxin, Down-regulated", "setting": "[5]", "value": 0.45, "unit": "fold"}, {"measurement": "expression of PBP-2, Up-regulated", "setting": "[5]; 200 μM vs untreated control", "value": 2.0, "unit": "fold"}, {"measurement": "expression of PBP-4, Up-regulated", "setting": "[5]; 200 μM vs untreated control", "value": 1.7, "unit": "fold"}, {"measurement": "expression of agrA (quorum sensing), Up-regulated", "setting": "[5]; 200 μM vs untreated control", "value": 5.4, "unit": "fold"}, {"measurement": "expression of agrB (quorum sensing), Up-regulated", "setting": "[5]; 200 μM vs untreated control", "value": 5.8, "unit": "fold"}, {"measurement": "expression of agrC (quorum sensing), Up-regulated", "setting": "[5]; 200 μM vs untreated control", "value": 2.0, "unit": "fold"}, {"measurement": "expression of agrD (quorum sensing), Up-regulated", "setting": "[5]; 200 μM vs untreated control", "value": 2.2, "unit": "fold"}, {"measurement": "expression of clfA (clumping factor), Down-regulated", "setting": "[5]; 200 μM vs untreated control", "value": 0.54, "unit": "fold"}, {"measurement": "expression of clfB (clumping factor), Down-regulated", "setting": "[5]; 200 μM vs untreated control", "value": 0.43, "unit": "fold"}, {"measurement": "expression of collagen adhesin, Down-regulated", "setting": "[5]; 200 μM vs untreated control", "value": 0.55, "unit": "fold"}, {"measurement": "expression of exfoliative toxin, Down-regulated", "setting": "[5]; 200 μM vs untreated control", "value": 0.52, "unit": "fold"}, {"measurement": "expression of fbnA (fibrinogen binding), Down-regulated", "setting": "[5]; 200 μM vs untreated control", "value": 0.66, "unit": "fold"}, {"measurement": "expression of fnbB (fibronectin binding), Down-regulated", "setting": "[5]; 200 μM vs untreated control", "value": 0.47, "unit": "fold"}, {"measurement": "expression of icaR (intercellular adhesin), Down-regulated", "setting": "[5]; 200 μM vs untreated control", "value": 0.62, "unit": "fold"}, {"measurement": "expression of rsbW (anti-sigmaB), Up-regulated", "setting": "[5]; 200 μM vs untreated control", "value": 4.5, "unit": "fold"}, {"measurement": "expression of saeR (response regulator), Up-regulated", "setting": "[5]; 200 μM vs untreated control", "value": 2.5, "unit": "fold"}, {"measurement": "expression of saeS (histidine kinase), Up-regulated", "setting": "[5]; 200 μM vs untreated control", "value": 1.5, "unit": "fold"}, {"measurement": "expression of vacuolating cytotoxin, Down-regulated", "setting": "[5]; 200 μM vs untreated control", "value": 0.56, "unit": "fold"}]}]}
